In patent US10105357B2, “Indication of antibiotic drugs for preparation of cancer inhibition pharmaceutical composition” (LAUNX BIOMEDICAL CO., LTD., priority 2014, dated 2018):
Structures can show the parent of a compound that is named as a salt. Where two headings read alike, the source gives them in different places.

Assays:
[1] = test system: AGS (Gastric Adenocarcinoma); assay: Cell viability analysis, gastric cancer AGS; type: cell-based, human; conditions: Homo sapiens
[2] = test system: PC3 (p53−) (Prostate Adenocarcinoma); assay: Cell viability analysis, prostate cancer PC3; type: cell-based, human; conditions: Homo sapiens
[3] = test system: TSGH-8301 (Urinary Bladder Carcinoma); assay: Cell viability analysis, bladder cancer TSGH-8301; type: cell-based, human; conditions: Homo sapiens
[4] = test system: A549 (Lung Adenocarcinoma); assay: Cell viability analysis, lung cancer A549; type: cell-based, human; conditions: Homo sapiens
[5] = test system: A375 (Amelanotic Melanoma); assay: Cell viability analysis, skin cancer A375; type: cell-based, human; conditions: Homo sapiens
[6] = test system: MKN-45 (Gastric Adenocarcinoma); assay: Cell viability analysis, gastric cancer MKN-45; type: cell-based, human; conditions: Homo sapiens
[7] = test system: HCT116 (p53+) (Colorectal Carcinoma); assay: cells; conditions: Homo sapiens, HCT-116, 72 h, read-out: cell viability (survival rate), HCT116
[8] = test system: HI650 (Lung Adenocarcinoma); assay: Cell viability analysis, lung cancer HI650; type: cell-based, human; conditions: Homo sapiens
[9] = test system: LoVo (Colorectal Adenocarcinoma); assay: Cell viability analysis, colon cancer LoVo; type: cell-based, human; conditions: Homo sapiens, LoVo
[10] = test system: HL-60 (Acute Promyelocytic Leukemia); assay: Cell viability analysis, leukemia HL-60; type: cell-based, human; conditions: Homo sapiens
[11] = test system: MCF7 (Mammary Gland, Adenocarcinoma); assay: Cell viability analysis, breast cancer MCF7; type: cell-based, human; conditions: Homo sapiens
[12] = test system: HeLa (Cervix Adenocarcinoma); assay: Cell viability analysis, cervical cancer HeLa; type: cell-based, human; conditions: Homo sapiens, HeLa
[13] = test system: HepG2 (Hepatocellular Carcinoma); assay: Cell viability analysis, hepatic cancer HepG2; type: cell-based, human; conditions: Homo sapiens
[14] = drug 10 μM, 72 hours, WST-1, OD450 nm, read-out: cell viability (survival rate), AGS
[15] = drug 10 μM, 72 hours, WST-1, OD450 nm, read-out: cell viability (survival rate), PC3
[16] = drug 10 μM, 72 hours, WST-1, OD450 nm, read-out: cell viability (survival rate), TSGH
[17] = A549, drug 10 μM, 72 hours, WST-1, OD450 nm, read-out: cell viability (survival rate), A549
[18] = A-375, drug 10 μM, 72 hours, WST-1, OD450 nm, read-out: cell viability (survival rate), A375
[19] = MKN-45, drug 10 μM, 72 hours, WST-1, OD450 nm, read-out: cell viability (survival rate), MKN-45
[20] = NCI-H1650, drug 10 μM, 72 hours, WST-1, OD450 nm, read-out: cell viability (survival rate), H1650
[21] = drug 10 μM, 72 hours, WST-1, OD450 nm, read-out: cell viability (survival rate), LoVo
[22] = HL-60, drug 10 μM, 72 hours, WST-1, OD450 nm, read-out: cell viability (survival rate), HL-60
[23] = MCF7, drug 10 μM, 72 hours, WST-1, OD450 nm, read-out: cell viability (survival rate), MCF7
[24] = drug 10 μM, 72 hours, WST-1, OD450 nm, read-out: cell viability (survival rate), HeLa
[25] = HepG2, drug 10 μM, 72 hours, WST-1, OD450 nm, read-out: cell viability (survival rate), HepG2
[26] = 72 h, drug 10 μM, 72 hours, WST-1, OD450 nm, read-out: cell viability (survival rate), AGS
[27] = 72 h, drug 10 μM, 72 hours, WST-1, OD450 nm, read-out: cell viability (survival rate), PC3
[28] = 72 h, drug 10 μM, 72 hours, WST-1, OD450 nm, read-out: cell viability (survival rate), TSGH
[29] = A549, 72 h, drug 10 μM, 72 hours, WST-1, OD450 nm, read-out: cell viability (survival rate), A549
[30] = A-375, 72 h, drug 10 μM, 72 hours, WST-1, OD450 nm, read-out: cell viability (survival rate), A375
[31] = MKN-45, 72 h, drug 10 μM, 72 hours, WST-1, OD450 nm, read-out: cell viability (survival rate), MKN-45
[32] = NCI-H1650, 72 h, drug 10 μM, 72 hours, WST-1, OD450 nm, read-out: cell viability (survival rate), H1650
[33] = 72 h, read-out: cell viability (survival rate), LoVo, drug 10 μM, 72 hours, WST-1, OD450 nm
[34] = HL-60, 72 h, drug 10 μM, 72 hours, WST-1, OD450 nm, read-out: cell viability (survival rate), HL-60
[35] = MCF7, 72 h, drug 10 μM, 72 hours, WST-1, OD450 nm, read-out: cell viability (survival rate), MCF7
[36] = 72 h, drug 10 μM, 72 hours, WST-1, OD450 nm, read-out: cell viability (survival rate), HeLa
[37] = HepG2, 72 h, drug 10 μM, 72 hours, WST-1, OD450 nm, read-out: cell viability (survival rate), HepG2
[38] = 72 h, read-out: cell viability (survival rate), AGS, drug 10 μM, 72 hours, WST-1, OD450 nm
[39] = 72 h, read-out: cell viability (survival rate), PC3, drug 10 μM, 72 hours, WST-1, OD450 nm
[40] = 72 h, read-out: cell viability (survival rate), TSGH, drug 10 μM, 72 hours, WST-1, OD450 nm
[41] = A549, 72 h, read-out: cell viability (survival rate), A549, drug 10 μM, 72 hours, WST-1, OD450 nm
[42] = A-375, 72 h, read-out: cell viability (survival rate), A375, drug 10 μM, 72 hours, WST-1, OD450 nm
[43] = MKN-45, 72 h, read-out: cell viability (survival rate), MKN-45, drug 10 μM, 72 hours, WST-1, OD450 nm
[44] = NCI-H1650, 72 h, read-out: cell viability (survival rate), H1650, drug 10 μM, 72 hours, WST-1, OD450 nm
[45] = HL-60, 72 h, read-out: cell viability (survival rate), HL-60, drug 10 μM, 72 hours, WST-1, OD450 nm
[46] = MCF7, 72 h, read-out: cell viability (survival rate), MCF7, drug 10 μM, 72 hours, WST-1, OD450 nm
[47] = 72 h, read-out: cell viability (survival rate), HeLa, drug 10 μM, 72 hours, WST-1, OD450 nm
[48] = HepG2, 72 h, read-out: cell viability (survival rate), HepG2, drug 10 μM, 72 hours, WST-1, OD450 nm

SMILES	viability at 10 µM [1, 14] [%]	viability at 10 µM [2, 15] [%]	viability at 10 µM [3, 16] [%]	viability at 10 µM [4, 17] [%]	viability at 10 µM [5, 18] [%]	viability at 10 µM [6, 19] [%]	viability at 10 µM [7] [%]	viability at 10 µM [8, 20] [%]	viability at 10 µM [9, 33] [%]	viability at 10 µM [1, 38] [%]	viability at 10 µM [2, 39] [%]	viability at 10 µM [3, 40] [%]	viability at 10 µM [4, 41] [%]	viability at 10 µM [5, 42] [%]	viability at 10 µM [6, 43] [%]	viability at 10 µM [8, 44] [%]	viability at 10 µM [10, 45] [%]	viability at 10 µM [11, 46] [%]	viability at 10 µM [12, 47] [%]	viability at 10 µM [13, 48] [%]	further results
CCC1(C)CC(=O)NC(=O)C1 [Bemegride]	62	113	93.3	60.2	62.7	99.7	47.7	69.9													viability at 10 µM [9, 21]: 88.5%; viability at 10 µM [10, 22]: 125%; viability at 10 µM [11, 23]: 123%; viability at 10 µM [12, 24]: 62.7%; viability at 10 µM [13, 25]: 90.7%
CCc1oc2ccccc2c1C(=O)c1cc(Br)c(O)c(Br)c1 [Benzbromarone]							128		105												viability at 10 µM [1, 26]: 80.1%; viability at 10 µM [2, 27]: 80.9%; viability at 10 µM [3, 28]: 99.9%; viability at 10 µM [4, 29]: 51.5%; viability at 10 µM [5, 30]: 99.2%; viability at 10 µM [6, 31]: 86.2%; viability at 10 µM [8, 32]: 75.3%; viability at 10 µM [10, 34]: 85.5%; viability at 10 µM [11, 35]: 52.8%; viability at 10 µM [12, 36]: 104%; viability at 10 µM [13, 37]: 103%
COc1cc(/C=C/C(=O)CC(=O)/C=C/c2ccc(O)c(OC)c2)ccc1O [Curcumin]							93.6		80	72.2	77.9	95.4	105	104	46.4	74.7	111	61.8	66.2	98.3	
COC(=O)C1=CO[C@@H](O[C@@H]2O[C@H](CO)[C@@H](O)[C@H](O)[C@H]2O)[C@@H]2C(CO)=CC[C@H]12 [Geniposide]	54.2	65.5	53.1	63.7	73.4	45.6	73.9	71.2													viability at 10 µM [9, 21]: 74.1%; viability at 10 µM [10, 22]: 120%; viability at 10 µM [11, 23]: 73.8%; viability at 10 µM [12, 24]: 81%; viability at 10 µM [13, 25]: 88.6%
Nc1c2ccccc2nc2ccccc12 [9-Aminoacridine]							70.5		58.5	42.8	38.7	34.6	25.8	36.4	63.1	56.9	28.8	34.1	43.6	63.5	
C[C@@H]1CCC[C@H](C)N1NC(=O)c1ccc(Cl)c(S(N)(=O)=O)c1 [Clopamide]							102		54.3	50.3	40.3	59	32.4	63.1	89.4	54	102	33.4	87.1	92.8	
O=C(O)c1ccccc1 [Benzoic acid]	53.1	36.8	39.5	36.7	37	43.4	41.9	57.2													viability at 10 µM [9, 21]: 60.5%; viability at 10 µM [10, 22]: 111%; viability at 10 µM [11, 23]: 31.4%; viability at 10 µM [12, 24]: 59.6%; viability at 10 µM [13, 25]: 79.1%
CN(C)[C@@H]1C(O)=C(C(=O)NCN2CCCC2)C(=O)[C@@]2(O)C(O)=C3C(=O)c4c(O)cccc4[C@@](C)(O)[C@H]3C[C@@H]12 [Rolitetracycline]							67.7		86.1	61.1	105	54.3	112	82.5	95.7	113	102	88.8	53.9	71.2	
CCCCC(CC)CNC(=N)NC(=N)NCCCCCCNC(=N)NC(=N)NCC(CC)CCCC (stereo not shown) [Alexidine HCl]							65.8		54.6												viability at 10 µM [1, 26]: 45.1%; viability at 10 µM [2, 27]: 38%; viability at 10 µM [3, 28]: 36.6%; viability at 10 µM [4, 29]: 25.3%; viability at 10 µM [5, 30]: 38.1%; viability at 10 µM [6, 31]: 64.4%; viability at 10 µM [8, 32]: 57.5%; viability at 10 µM [10, 34]: 29.4%; viability at 10 µM [11, 35]: 34.8%; viability at 10 µM [12, 36]: 44.9%; viability at 10 µM [13, 37]: 65.9%
C[N+](C)(C)CCO.[Cl-] [Choline Chloride]							104														viability at 10 µM ([1]; 72 h, read-out: cell viability (survival rate), AGS): 97.1%; viability at 10 µM ([2]; 72 h, read-out: cell viability (survival rate), PC3): 106%; viability at 10 µM ([3]; 72 h, read-out: cell viability (survival rate), TSGH): 129%; viability at 10 µM ([4]; A549, 72 h, read-out: cell viability (survival rate), A549): 96%; viability at 10 µM ([5]; A-375, 72 h, read-out: cell viability (survival rate), A375): 132%; viability at 10 µM ([6]; MKN-45, 72 h, read-out: cell viability (survival rate), MKN-45): 99.3%; viability at 10 µM ([8]; NCI-H1650, 72 h, read-out: cell viability (survival rate), H1650): 90.2%; viability at 10 µM ([9]; 72 h, read-out: cell viability (survival rate), LoVo): 76.7%; viability at 10 µM ([10]; HL-60, 72 h, read-out: cell viability (survival rate), HL-60): 91.1%; viability at 10 µM ([11]; MCF7, 72 h, read-out: cell viability (survival rate), MCF7): 108%; viability at 10 µM ([12]; 72 h, read-out: cell viability (survival rate), HeLa): 103%; viability at 10 µM ([13]; HepG2, 72 h, read-out: cell viability (survival rate), HepG2): 103%
